Assay results taken from patent US9670227B2, “Thienopyrimidine derivatives, a process for their preparation and pharmaceutical compositions containing them” (LES LABORATOIRES SERVIER, priority 2013, dated 2017).
Read-outs that look alike come from different tables or passages of the source.

Key:
Mcl-1 protein = Mcl-1 protein (UniProtKB primary accession number: Q07820) (Homo sapiens, UniProt Q07820); test: Inhibition of Mcl-1 by fluorescence polarisation, Method 1; assay type: binding; details: fluorescence polarisation test; Method 2 values are underlined in the patent (underlining not visible here); read-out: IC50 (M) Mcl-1 FP
In short: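 An 11-point DMSO dilution of compound is mixed with buffer (10 mM HEPES, 150 mM NaCl, 0.05% Tween 20, pH 7.4) carrying 1 nM fluorescein-labelled ligand and 5 nM Mcl-1, final concentrations. Displacement is monitored by fluorescence polarisation.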

[1] = tested on: H929 multiple myeloma tumour line; test: In vitro cytotoxicity, Microculture Tetrazolium Assay; assay type: cell-based; details: H929 cells, 48 hours exposure, MTT, read-out: IC50 (μM) MTT H929
Method: The cytotoxicity studies were carried out on the H929 multiple myeloma tumour line.
The cells are distributed onto microplates and exposed to the test compounds for 48 hours.

Sequence of Mcl-1 protein (Q07820 whole entry): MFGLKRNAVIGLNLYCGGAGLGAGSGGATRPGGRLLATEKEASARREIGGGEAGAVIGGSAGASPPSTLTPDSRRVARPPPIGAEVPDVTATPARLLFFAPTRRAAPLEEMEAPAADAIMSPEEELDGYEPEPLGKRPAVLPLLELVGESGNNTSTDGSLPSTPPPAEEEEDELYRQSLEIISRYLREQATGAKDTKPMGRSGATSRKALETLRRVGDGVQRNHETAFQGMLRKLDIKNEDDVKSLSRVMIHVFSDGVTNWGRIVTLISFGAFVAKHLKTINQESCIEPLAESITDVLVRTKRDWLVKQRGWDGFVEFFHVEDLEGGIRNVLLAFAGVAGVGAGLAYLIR

| IC50 (Mcl-1 protein) [M] | SMILES | IC50 ([1]; Homo sapiens, NCI-H929, 48 h) [µM] | IC50 [1] [µM] |
| --- | --- | --- | --- |
| 8.5e-08 | Cc1c(-c2c(-c3ccc(F)cc3)sc3ncnc(OC(Cc4ccccc4OCc4cnccn4)C(=O)O)c23)ccc(OCC2CCN(C)C2)c1Cl [Example 139, (2R)-2-{[(5Sa)-5-(3-chloro-2-methyl-4-{[(3R)-1-methylpyrrolidin-3-yl]methoxy}phenyl)-6-(4-fluorophenyl)thieno[2,3-d]pyrimidin-4-yl]oxy}-3-[2-(pyrazin-2-ylmethoxy)phenyl]propanoic acid] | – | 0.636 |
| 2.2e-08 | Cc1c(-c2c(-c3ccc(F)cc3)sc3ncnc(OC(Cc4ccccc4OCc4cnccn4)C(=O)O)c23)ccc(OCC2CCN(C)C2)c1Cl [Example 140, (2R)-2-{[(5Sa)-5-(3-chloro-2-methyl-4-{[(3S)-1-methylpyrrolidin-3-yl]methoxy}phenyl)-6-(4-fluorophenyl)thieno[2,3-d]pyrimidin-4-yl]oxy}-3-[2-(pyrazin-2-ylmethoxy)phenyl]propanoic acid] | – | 0.205 |
| 2.6e-08 | Cc1c(-c2c(-c3ccc(F)cc3)sc3ncnc(OC(Cc4ccccc4OCc4cnccn4)C(=O)O)c23)ccc(OCC2CCCN2C)c1Cl [Example 143, (2R)-2-{[(5Sa)-5-{3-chloro-2-methyl-4-[(1-methylpyrrolidin-2-yl)methoxy]phenyl}-6-(4-fluorophenyl)thieno[2,3-d]pyrimidin-4-yl]oxy}-3-[2-(pyrazin-2-ylmethoxy)phenyl]propanoic acid] | 1.61 | – |
| 1.6e-08 | Cc1c(-c2c(-c3ccc(F)cc3)sc3ncnc(O[C@H](Cc4ccccc4OCc4cnccn4)C(=O)O)c23)ccc(OCC2CCCCN(C)C2)c1Cl (stereo partly drawn) [Example 144, (2R)-2-{[(5Sa)-5-{3-chloro-2-methyl-4-[(1-methylazepan-3-yl)methoxy]phenyl}-6-(4-fluorophenyl)thieno[2,3-d]pyrimidin-4-yl]oxy}-3-[2-(pyrazin-2-ylmethoxy)phenyl]propanoic acid] | – | 1.6 |
| 1.1e-08 | Cc1c(-c2c(-c3ccc(F)cc3)sc3ncnc(OC(Cc4ccccc4OCc4cnccn4)C(=O)O)c23)ccc(OCC2CCN(C)C2)c1Cl [Example 145, (2R)-2-{[(5Sa)-5-{3-chloro-2-methyl-4-[(1-methylpyrrolidin-3-yl)methoxy]phenyl}-6-(4-fluorophenyl)thieno[2,3-d]pyrimidin-4-yl]oxy}-3-[2-(pyrazin-2-ylmethoxy)phenyl]propanoic acid] | – | 0.293 |
| 3.5e-08 | Cc1c(-c2c(-c3ccc(F)cc3)sc3ncnc(OC(Cc4ccccc4OCc4cnccn4)C(=O)O)c23)ccc(OCCCC2CCCN2C)c1Cl [Example 146, (2R)-2-{[(5Sa)-5-{3-chloro-2-methyl-4-[3-(1-methylpyrrolidin-2-yl)propoxy]phenyl}-6-(4-fluorophenyl)thieno[2,3-d]pyrimidin-4-yl]oxy}-3-[2-(pyrazin-2-ylmethoxy)phenyl]propanoic acid] | 1.16 | – |

Continued, compound first:

| SMILES | IC50 (Mcl-1 protein) [M] | IC50 ([1]; Homo sapiens, NCI-H929, 48 h) [µM] | IC50 [1] [µM] |
| --- | --- | --- | --- |
| CCOc1nccc(COc2ccccc2CC(Oc2ncnc3sc(-c4ccc(F)cc4)c(-c4ccc(OCCN(C)C)c(Cl)c4C)c23)C(=O)O)n1 [Example 130, (2R)-2-{[(5Sa)-5-{3-chloro-4-[2-(dimethylamino)ethoxy]-2-methylphenyl}-6-(4-fluorophenyl)thieno[2,3-d]pyrimidin-4-yl]oxy}-3-{2-[(2-ethoxypyrimidin-4-yl)methoxy]phenyl}propanoic acid] | 3.4e-09 | 0.065 | – |
| Cc1c(-c2c(-c3ccc(F)cc3)sc3ncnc(OC(Cc4ccccc4OCc4ccnc(OCC(F)(F)F)n4)C(=O)O)c23)ccc(OCCN(C)C)c1Cl [Example 131, (2R)-2-{[(5Sa)-5-{3-chloro-4-[2-(dimethylamino)ethoxy]-2-methylphenyl}-6-(4-fluorophenyl)thieno[2,3-d]pyrimidin-4-yl]oxy}-3-(2-{[2-(2,2,2-trifluoroethoxy)pyrimidin-4-yl]methoxy}phenyl)propanoic acid] | 7.9e-09 | 0.039 | – |
| Cc1c(-c2c(-c3ccc(F)cc3)sc3ncnc(OC(Cc4ccccc4OCc4ccnn4CC(F)(F)F)C(=O)O)c23)ccc(OCCN(C)C)c1Cl [Example 132, (2R)-2-{[(5Sa)-5-{3-chloro-4-[2-(dimethylamino)ethoxy]-2-methylphenyl}-6-(4-fluorophenyl)thieno[2,3-d]pyrimidin-4-yl]oxy}-3-(2-{[1-(2,2,2-trifluoroethyl)-1H-pyrazol-5-yl]methoxy}phenyl)propanoic acid] | 4.8e-09 | 0.102 | – |
| CCCCn1nccc1COc1ccccc1CC(Oc1ncnc2sc(-c3ccc(F)cc3)c(-c3ccc(OCCN(C)C)c(Cl)c3C)c12)C(=O)O [Example 133, (2R)-3-{2-[(1-butyl-1H-pyrazol-5-yl)methoxy]phenyl}-2-{[(5Sa)-5-{3-chloro-4-[2-(dimethylamino)ethoxy]-2-methylphenyl}-6-(4-fluorophenyl)thieno[2,3-d]pyrimidin-4-yl]oxy}propanoic acid] | 3.4e-09 | 0.099 | – |
| Cc1c(-c2c(-c3ccc(F)cc3)sc3ncnc(OC(Cc4ccccc4OCc4cnccn4)C(=O)O)c23)ccc(OCCN(C)C)c1Cl [Example 134, (2R)-2-{[(5Sa)-5-{3-chloro-4-[2-(dimethylamino)ethoxy]-2-methylphenyl}-6-(4-fluorophenyl)thieno[2,3-d]pyrimidin-4-yl]oxy}-3-[2-(pyrazin-2-ylmethoxy)phenyl]propanoic acid] | 1.3e-08 | 0.193 | – |
| Cc1cc(-c2nccc(COc3ccccc3CC(Oc3ncnc4sc(-c5ccc(F)cc5)c(-c5ccc(OCCN(C)C)c(Cl)c5C)c34)C(=O)O)n2)ccn1 [Example 136, (2R)-2-{[(5Sa)-5-{3-chloro-4-[2-(dimethylamino)ethoxy]-2-methylphenyl}-6-(4-fluorophenyl)thieno[2,3-d]pyrimidin-4-yl]oxy}-3-(2-{[2-(2-methylpyridin-4-yl)pyrimidin-4-yl]methoxy}phenyl)propanoic acid] | 7.7e-09 | 0.015 | – |
| Cc1cnccc1-c1nccc(COc2ccccc2CC(Oc2ncnc3sc(-c4ccc(F)cc4)c(-c4ccc(OCCN(C)C)c(Cl)c4C)c23)C(=O)O)n1 [Example 137, (2R)-2-{[(5Sa)-5-{3-chloro-4-[2-(dimethylamino)ethoxy]-2-methylphenyl}-6-(4-fluorophenyl)thieno[2,3-d]pyrimidin-4-yl]oxy}-3-(2-{[2-(3-methylpyridin-4-yl)pyrimidin-4-yl]methoxy}phenyl)propanoic acid] | 5.5e-09 | 0.007 | – |
| Cc1c(-c2c(-c3ccc(F)cc3)sc3ncnc(OC(Cc4ccccc4OCc4cnccn4)C(=O)O)c23)ccc(OCCCN(C)C)c1Cl [Example 147, (2R)-2-{[(5Sa)-5-{3-chloro-4-[3-(dimethylamino)propoxy]-2-methylphenyl}-6-(4-fluorophenyl)thieno[2,3-d]pyrimidin-4-yl]oxy}-3-[2-(pyrazin-2-ylmethoxy)phenyl]propanoic acid] | 2.4e-08 | 0.787 | – |
| CNC(=O)COc1ccccc1CC(Oc1ncnc2sc(-c3ccc(F)o3)c(-c3ccc(OCCN4CCN(C)CC4)c(Cl)c3C)c12)C(=O)O [Example 151, (2R)-2-{[(5Sa)-5-{3-chloro-2-methyl-4-[2-(4-methylpiperazin-1-yl)ethoxy]phenyl}-6-(5-fluorofuran-2-yl)thieno[2,3-d]pyrimidin-4-yl]oxy}-3-{2-[2-(methylamino)-2-oxoethoxy]phenyl}propanoic acid] | 3.6e-09 | 0.309 | – |
